# Measurements from ChEMBL document CHEMBL3507680, “University of Dundee, Gates Library screen for HepG2 cell viability”.
# Experiment: Human HepG2 cell viability assay in 384 well format
# Assay type: toxicity, cell-based
# Design: dose 125 nL, time 70.5 hour; concentration not given beside the values
# Conditions: HepG2 cells, read-out: Inhibition
row,Structure (SMILES),cytotoxicity at 70.5 h
1,CS(=O)(=O)C1=C(O)C(=O)N(c2ccccc2)C1c1ccccc1 (stereo not given),-4.58%
2,Cc1ccc2c(c1)c(C)cc(=O)n2CCC(=O)O,-6.14%
3,CS(=O)(=O)NC[C@]12COC[C@H]1CN(C(=O)c1ccccc1)C2,-3.75%
4,CS(=O)(=O)NC[C@]12COC[C@H]1CN(C(=O)Cc1ccccc1F)C2,-1.03%
5,Cc1csc([C@@H]2C[C@@H]3CCN(C(=O)c4cc(C)on4)C[C@H]3O2)n1,-1.08%
6,CC(C)NC(=O)N1CCN(S(=O)(=O)C2CC2)CC2(CNC(=O)C2)C1 (stereo not given),1.9%
7,Cn1nnc2c1C(COCC1CC1)CN(C(=O)Cc1ccsc1)C2 (stereo not given),-0.74%
8,CC(C)NC(=O)N1CCN(S(=O)(=O)C2CC2)CC2(CC(=O)N(C)C2)C1 (stereo not given),0.827%
9,O=C1CCC2(CCCN(c3ncc(F)cn3)CC2)N1CC1CC1 (stereo not given),-1.42%
10,COCC1CC2(CCN(C(=O)c3occc3C)CC2)CO1 (stereo not given),-6.11%
11,O=C(c1ccsc1)N1CC(C(=O)N2CCOCC2)C2(CCOCC2)C1 (stereo not given),-1.97%
12,O=C(CCc1ccccc1)N1CCn2cc(CN3CCCC3)nc2C1,-11.7%
13,Cc1cc(C(=O)N2C[C@@H]3COC[C@]3(COCc3cccnc3)C2)no1,-12%
14,COc1ccc2c(c1)C1(CCN(Cc3ccoc3)CC1)N(C)CC2,-5.64%
15,Cn1nc(C(=O)NN2CCOCC2)c(Cl)c1C(F)(F)F,-3.83%
16,CC(C(=O)NN1CCOCC1)n1nc(C(F)(F)F)c(Cl)c1C1CC1 (stereo not given),6.2%
17,N#Cc1cc(C#N)c(SCC(=O)Nc2ccc(F)cc2)nc1N,5.41%
18,CCC(=O)c1ccc(Br)cc1NN1c2cc(Br)ccc2C(=O)C1(C)OC (stereo not given),13.3%
19,CCC1=NN2C(=N)/C(=C/c3cccc(Cl)c3)C(=O)N=C2S1,-5.39%
20,CN(C)c1nc2n(c(=O)n1)CCN2C(=O)Nc1cccc(Cl)c1,-9.23%
21,CCOC(=O)Cn1cnc2nc3n(c2c1=O)CCC3,-2.23%
22,OC(CN1CCOCC1)c1ccc(Br)cc1 (stereo not given),-4.1%
23,CCc1oc2ccc(NS(C)(=O)=O)cc2c1C(=O)OC,0.398%
24,CCS(=O)(=O)Nc1ccc2oc(C)c(C(=O)OC)c2c1,-15%
25,CC/N=c1\c(NC(=O)C(C)(C)C)c(O)oc2ccccc12,22.9%
26,CCOC(=O)c1sc(NC(=O)COC)c(C#N)c1C,28.6%
27,COCC(=O)NC[C@H]1CC[C@H](c2ccnc3ncnn32)CC1,-8.99%

row,Structure (SMILES),cytotoxicity at 70.5 h
1,Cc1cccc(NC(=O)c2cncc(C3CCNCC3)n2)n1,-5.87%
2,NC(=O)c1cn[nH]c1C1CCCN1C(=O)c1ccccc1 (stereo not given),-5.37%
3,c1nnc(Nc2cncc(C3CCCN3CC3CC3)n2)s1 (stereo not given),0.394%
4,Cc1nn(C)cc1NC(=O)CN1CCC(Oc2cnccn2)CC1,-4.13%
5,Cc1n[nH]c(C)c1S(=O)(=O)N1CCC(Oc2cnccn2)CC1,-2.37%
6,Cc1ccccc1OC1CCN(S(=O)(=O)c2c(C)n[nH]c2C)CC1,-6.57%
7,CC(=O)N1CCC(C)(c2nc(C)no2)CC1,-5%
8,CN1CCC(c2[nH]ncc2S(C)(=O)=O)CC1,-7.29%
9,Cc1nc2c(c(Nc3ccccn3)n1)CN(S(C)(=O)=O)CC2,23.4%
10,O=C(NCC1(O)COCCN(Cc2ccc(O)cc2)C1)c1cnccn1 (stereo not given),-9.12%
11,Cc1cc(C)nc(N2CC=C[C@H]2C(=O)NCc2ccc3c(c2)OCO3)n1,-3.34%
12,c1cc(CCNc2ncc(-c3cnccn3)c(C3CC3)n2)ccn1,-5.03%
13,Cc1c(C2=NS(=O)(=O)N(C)C(C(=O)Nc3ccc(Br)cc3)=C2)cnn1C,22.2%
14,Cc1nn(C)cc1C1=NS(=O)(=O)N(C)C(C(=O)Nc2ccc(Br)cc2)=C1,0.0552%
15,Cc1cc(-c2ccc(=O)n(C3CCN(C(=O)C4CCC4)CC3)n2)c(C)o1,1.9%
16,CCCS(=O)(=O)N1CCC(n2nc(-c3cc(C)oc3C)ccc2=O)CC1,8.97%
17,O=C(O)[C@@H]1CCN(C(=O)c2cscn2)[C@@H]1c1ccc(F)cc1,-2.87%
18,Cc1nccn1-c1ccc(CN2CC3C[C@@H](O)CN3C[C@@H]2C)cc1 (stereo not given in full),-7.07%
19,CNC(=O)c1cn[nH]c1C1CCCN1C(=O)c1ccccn1 (stereo not given),-1.79%
20,CN1CCOC(c2cncc(CCC(=O)N(C)C)n2)C1 (stereo not given),-2.29%
21,CNc1ncc(CN2CCCC2c2[nH]ncc2C(=O)N(C)C)cn1 (stereo not given),-3.21%
22,CC(C)c1ncc(CN2CCC(c3n[nH]cc3C(=O)N(C)C)C2)cn1 (stereo not given),-2.3%
23,Cc1cc(C)nc(C2CCCN2C(=O)c2cnccn2)n1 (stereo not given),-2.97%
24,CN1CCOC(c2cncc(CCC(N)=O)n2)C1 (stereo not given),-3.04%
25,Cc1cc(-c2cccnc2)nc(C2CCCN2S(C)(=O)=O)n1 (stereo not given),-3.42%
26,CCCC(=O)N1CCC(c2cc[nH]n2)C1 (stereo not given),0.0603%
27,CC(C)c1nccn1-c1nccnc1C1CCCN1Cc1cccnc1 (stereo not given),-1.81%

row,Structure (SMILES),cytotoxicity at 70.5 h
1,CCn1ncc(S(=O)(=O)N2CCCC3(CC=CNC3=O)C2)c1C (stereo not given),-1.6%
2,Cc1ccc(C)c2c(C)c(C(=O)NCC[S+](C)[O-])[nH]c12 (stereo not given),-4.15%
3,C[C@@H]1CN2C[C@H](O)CC2CN1Cc1ccc2nccnc2c1 (stereo not given in full),35.6%
4,COc1ccccc1C1(O)CCCN(C(=O)c2ccnn2C(C)C)C1 (stereo not given),-1.5%
5,CCN1CCCC1CNCc1cc2cc3c(cc2[nH]c1=O)OCCO3 (stereo not given),-1.38%
6,Cc1nc(O)c2c(n1)CCN(Cc1cc(C)sc1C)CC2,23.6%
7,CC(C)c1nc(O)c2nnn(C[C@@H]3CCCN(Cc4cccs4)C3)c2n1,1.47%
8,CCN1CCCC1CNCc1cc2cc(C)c(C)cc2[nH]c1=O (stereo not given),-2.24%
9,CCN1CCCC1CNCc1cc2cc(OC)c(OC)cc2[nH]c1=O (stereo not given),-1.47%
10,C[C@H]1CN2C[C@H](O)CC2CN1Cc1ccncc1 (stereo not given in full),-1.34%
11,COc1cccc(OC)c1CNC(Cc1ccsc1)c1ccc(C)cn1 (stereo not given),4.63%
12,NC1(CN2CCCCC2)CCCCC1,-3.49%
13,Cc1ccccc1NC(=O)c1cncc(C2CCNCC2)n1,-4.64%
14,CC1(C)Cc2cc(-c3cncn3CCNC3CCS(=O)(=O)C3)ccc2O1 (stereo not given),-0.723%
15,Cc1cc(C)nc(N2CC=C[C@@H]2C(=O)NCc2ccc3c(c2)OCO3)n1,-9.16%
16,C[C@H]1CN2C[C@H](O)CC2CN1Cc1ccc2nccnc2c1 (stereo not given in full),-1.32%
17,O=C(NC1COC2(CCN(Cc3ccccn3)CC2)C1)c1ccccn1 (stereo not given),3.59%
18,O=C(c1cccnc1)N1CCCC2(CCN(c3ccsc3)C2=O)C1 (stereo not given),13.9%
19,CCS(=O)(=O)N1CCC2(CC1)CC(Oc1ccccn1)CO2 (stereo not given),-18.2%
20,Cc1noc([C@@H]2C[C@H]3CN(Cc4cc(C)on4)C[C@H]3O2)n1,-4.39%
21,Cc1ccc(CN2CCn3cc(CN(C)Cc4ccco4)nc3C2)o1,0.0869%
22,O=C1COC2(COCCN(Cc3cccnc3)C2)CN1c1ccoc1 (stereo not given),-9.07%
23,COCCN1C[C@@H]2CN(Cc3ccsc3)CCC[C@]2(C(=O)O)C1,-12.1%
24,CCOC(=O)[C@]12CCCN(Cc3ccco3)C[C@H]1CN(CCN(C)C)C2,-8.65%
25,Cn1ccnc1CN(Cc1ccccn1)Cc1ccccc1Cl,1.27%
26,Cc1ncc(CN(Cc2ccccn2)Cc2ccccc2Cl)n1C,11.6%
